Laboratory results taken from US20230165821A1, “ELAFIBRANOR FOR THE TREATMENT OF PRIMARY SCLEROSING CHOLANGITIS” (Genfit, priority 2020, published 2023).
“Also recorded” adds a separate entry of the source.

Experiments:
Assay type in all cases: in vivo, human
total bilirubin level = test: Phase I clinical trial, assessment of bilirubin level; settings: for Measure of total bilirubin Day 15 change from the baseline: fasting, n=9
Source text: (§1) Patients with clinical PSC have elevated alkaline phosphatase (ALP) and bilirubin levels. […] Some studies underline also elevated levels of bilirubin (Denau, M.R. et al., The Natural History of Primary Sclerosing Cholangitis in 781 Children: A Multicenter, International Collaboration. Hepatology (2017), Vol. 66, N° 2 pp518-527).
(§2) This clinical trial has been performed to assess the tolerability, safety and reduction of different parameters, including alkaline phosphatase of once-a-day administrations of oral doses of elafibranor (ELA) in […]. This was a phase I, single-center, double-blind, placebo-controlled, randomised, ascending multiple-dose study in healthy male volunteers. Doses of 40 mg or 60 mg once-a-day during 14 days were tested.
(§3) Thirty 19-40 years old Caucasian male volunteers were included: 9 for each treatment group and 12 for the placebo group.
(§4) The compound used was ELA, supplied in hard gelatin capsules dosed at 10 mg. Dose per administration was of 40 mg or 60 mg. Administration was repeated once-a-day, with an oral administration around 8 a.m. with 200 mL tap water, in sitting position, in fasting conditions, from day 1 to day 14. Matching placebo was presented as identical capsules.

[1] = tested on: alkaline phosphatase (ALP) level; test: Phase I clinical trial, assessment of ALP level; settings: for Measure of ALP Day 15 change from the baseline: fasting, n=9, baseline day 1
Source text: as §1, §2, §3, §4
Alkaline phosphatase level was assessed at baseline (day 1) and day 15.

healthy male volunteers = test: Phase I clinical trial, tolerability and safety
Procedure: as §2, §3, §4

[2] = ELA 40 mg/day oral once-a-day for 14 days
[3] = ELA 60 mg/day oral once-a-day for 14 days

Structure (SMILES): CSc1ccc(C(=O)C=Cc2cc(C)c(OC(C)(C)C(=O)O)c(C)c2)cc1 [ELA, 2-(2,6-dimethyl-4-{3-[4-(methylsulfanyl)phenyl]-3-oxopropen-1-yl}phenoxy)-2-methylpropanoic acid]
- Measure of total bilirubin Day 15 change from the baseline (total bilirubin level; [2]): -2.07
- Measure of total bilirubin Day 15 change from the baseline (total bilirubin level; [3]): -2.46
- Total bilirubin levels compared to placebo group (total bilirubin level; both doses (40 mg and 60 mg), once-a-day, 14 days): improved total bilirubin levels compared to placebo group
- Measure of ALP Day 15 change from the baseline [1, 2]: -8.3
- Measure of ALP Day 15 change from the baseline [1, 3]: -20.7
- Alkaline phosphatase levels compared to placebo group ([1]; both doses (40 mg and 60 mg), once-a-day, 14 days, listed as elafibranor): improved alkaline phosphatase levels compared to placebo group; also recorded: decreased mean ALP compared with placebo
- Serious adverse events (healthy male volunteers; 40 mg or 60 mg once-a-day, 14 days, oral): No serious adverse events were reported
- Clinical tolerance (healthy male volunteers; repeated administration at either dose (40 mg or 60 mg), healthy volunteers): good clinical tolerance
